Among the test systems are SF-295 CNS; SF-268 CNS; HCT-15 colon; SNB-19 CNS; HOP-92 NSCLC; RPMI-8226 leukemia; OVCAR-3 ovarian; NCI-H522 lung; HT29 colon.
What all share (experiment): NCI tumour cell line growth inhibition, 48 h

Here are results for 16 compounds from PubChem BioAssay (NCI).

Structures are written as SMILES.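 In this assay, cells in 96-well plates receive the compound at five concentrations for 48 hours. Endpoints are linearly interpolated between the surrounding concentrations. Definition used: TGI = concentration required for complete inhibition of growth.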 A value given as a limit tells only on which side of the number the result lay.

On to `CCCCCCCCCCCCCCCc1nc(SCC(=O)O)n[nH]1`, for which the TGI is over 100 µM in the assay on SF-295 CNS; over 100 µM in the assay with SF-268 CNS; over 100 µM with HCT-15 colon; over 100 µM in the assay on SNB-19 CNS; 65 µM in the assay with HOP-92 NSCLC; over 100 µM in the assay on RPMI-8226 leukemia. In addition, the TGI with OVCAR-3 ovarian, with NCI-H522 lung and in the assay on HT29 colon was over 100 µM throughout.
As to `C[C@]12CC[C@H](O)CC1CCC[C@@H]2O` (some centres undefined), the TGI with SF-295 CNS, in the assay with SF-268 CNS, in the assay on HCT-15 colon, in the assay with SNB-19 CNS, with HOP-92 NSCLC and with RPMI-8226 leukemia was over 100 µM throughout. Also, the TGI in the assay with OVCAR-3 ovarian, in the assay with NCI-H522 lung and with HT29 colon was over 100 µM throughout.
For the compound `Nc1c(-c2ccc(-c3c(N)[n+]([O-])c4ccccc4[n+]3[O-])cc2)[n+]([O-])c2ccccc2[n+]1[O-]`, the TGI in the assay with SF-295 CNS was 36.7 µM; in the assay with SF-268 CNS, 66.2 µM; in the assay on HCT-15 colon it was 15.4 µM; with SNB-19 CNS, 29 µM; in the assay on HOP-92 NSCLC, over 100 µM; in the assay with RPMI-8226 leukemia, over 100 µM. Further, the TGI was 29.8 µM in the assay with OVCAR-3 ovarian, 3.65 µM with NCI-H522 lung and 27.1 µM in the assay with HT29 colon.
Turning to `CC(=O)NC1C(OCc2ccccc2)OC(COC(=O)CCCCCCCCCCNC(=O)CCNc2ccc([N+](=O)[O-])c3[nH]c4ccc(O)cc4c(=O)c23)C(O)C1OC(C)C(=O)N[C@H](C(=O)N[C@H](CCC(=O)O)C(N)=O)C(C)C` (some centres undefined), the TGI with SF-295 CNS was over 100 µM; in the assay with SF-268 CNS, over 100 µM; in the assay on HCT-15 colon it was over 100 µM; in the assay on SNB-19 CNS it was over 100 µM; in the assay on HOP-92 NSCLC, 88.4 µM; with RPMI-8226 leukemia, 46.6 µM. Besides, the results for the TGI in the assay on OVCAR-3 ovarian, with NCI-H522 lung and with HT29 colon were over 100 µM, 40.4 µM and over 100 µM, respectively.
With `O=C(NCCOCCO)c1ccc(O)cc1`, the TGI in the assay on SF-268 CNS, in the assay with HCT-15 colon, with HOP-92 NSCLC, in the assay with RPMI-8226 leukemia and with NCI-H522 lung was over 100 µM throughout.
As for `O=C1OC(/C=C/c2ccccc2)C(=O)C1=O` (centres undefined), the TGI in the assay with SF-295 CNS, with SF-268 CNS, in the assay with HCT-15 colon, with SNB-19 CNS, in the assay on HOP-92 NSCLC and in the assay on RPMI-8226 leukemia was over 100 µM in each case. The TGI with NCI-H522 lung and in the assay with HT29 colon was over 100 µM in each case.
Turning to `CC(=O)c1ccc(-c2ccc(C(C)=O)s2)s1`, the TGI with SF-295 CNS, in the assay on HCT-15 colon, in the assay on SNB-19 CNS, with HOP-92 NSCLC, in the assay on RPMI-8226 leukemia and in the assay with OVCAR-3 ovarian was over 100 µM each time. In addition, the TGI in the assay with NCI-H522 lung and in the assay on HT29 colon was over 100 µM in each case.
On to `O=C1C2Cc3ccccc3CN2C(=O)N1CCN1CCOCC1` (centres undefined), for which the TGI in the assay with SF-295 CNS, in the assay on SF-268 CNS, in the assay with HCT-15 colon, in the assay with SNB-19 CNS, in the assay with RPMI-8226 leukemia and in the assay with OVCAR-3 ovarian was over 100 µM in each case. Also, in the assay on NCI-H522 lung, the TGI was over 100 µM.
Turning to `COc1ccc2c(c1)[n+](=O)c(C(=O)C/C(=N\NC(=O)C[N+](C)(C)C)C(=O)Nc1cc(Cl)ccc1Cl)c(C)n2O`, the TGI in the assay on SF-295 CNS, with SF-268 CNS, in the assay with HCT-15 colon, in the assay with SNB-19 CNS, with HOP-92 NSCLC and with RPMI-8226 leukemia was over 100 µM in each case. For the same compound, the TGI in the assay with OVCAR-3 ovarian, with NCI-H522 lung and in the assay on HT29 colon was over 100 µM throughout.
On to `NCCCSCC(=O)O`, for which the TGI with SF-295 CNS, in the assay on SF-268 CNS, with HCT-15 colon, in the assay with SNB-19 CNS, in the assay with HOP-92 NSCLC and with RPMI-8226 leukemia was over 100 µM throughout. Moreover, the TGI in the assay on OVCAR-3 ovarian, in the assay with NCI-H522 lung and with HT29 colon was over 100 µM in each case.
In the case of `Cn1c(=O)ccc2cc(C(=O)c3ccccc3)ccc21`, the TGI with SF-295 CNS, in the assay on SF-268 CNS, in the assay with HCT-15 colon, in the assay with SNB-19 CNS, in the assay with HOP-92 NSCLC and in the assay on RPMI-8226 leukemia was over 100 µM throughout. Also, the TGI in the assay with OVCAR-3 ovarian is over 100 µM; in the assay on NCI-H522 lung, 82.7 µM; with HT29 colon, over 100 µM.
For the compound `Cn1c(=O)c2nc3sc4ccccc4c(=N)n3c2n(C)c1=O`, the TGI in the assay on SF-295 CNS, in the assay with SF-268 CNS, in the assay on SNB-19 CNS, in the assay on HOP-92 NSCLC, with NCI-H522 lung and with HT29 colon was over 100 µM throughout.
For the compound `CC(=O)Oc1cc(OC(C)=O)c(OC(C)=O)c2c1CC1C(=O)C3(CCc4ccccc43)C(=O)C1C2` (centres undefined), the TGI in the assay with SF-295 CNS was 17.3 µM; with HCT-15 colon it was 39.5 µM; in the assay with HOP-92 NSCLC, over 100 µM; with RPMI-8226 leukemia it was 13.1 µM; in the assay with OVCAR-3 ovarian, 16.6 µM; with HT29 colon it was 40.9 µM.
As for `COc1cccc(/C=N/[N-]C(N)=O)c1[O-].[Cu+2].c1ccncc1`, the TGI is 62.4 µM in the assay with SF-295 CNS; 39.2 µM in the assay on SF-268 CNS; over 100 µM with HCT-15 colon; 25 µM with SNB-19 CNS; 31.5 µM in the assay on HOP-92 NSCLC; 67.1 µM with RPMI-8226 leukemia. The TGI worked out at 28.8 µM in the assay on OVCAR-3 ovarian, 34.6 µM in the assay on NCI-H522 lung and 85.3 µM with HT29 colon.
Turning to `COC(=O)C1=CCS(=O)(=O)C1`, the TGI with SF-295 CNS, in the assay on SF-268 CNS, with HCT-15 colon, in the assay on SNB-19 CNS, in the assay on HOP-92 NSCLC and with RPMI-8226 leukemia was over 100 µM in each case. Moreover, the TGI in the assay with OVCAR-3 ovarian and with HT29 colon was over 100 µM in each case.
Take `OC1/C(=C/c2ccccc2)CNC/C1=C\c1ccccc1` (centres undefined): the TGI with SF-295 CNS, in the assay on SF-268 CNS, in the assay on HCT-15 colon, in the assay on SNB-19 CNS, in the assay on HOP-92 NSCLC and with RPMI-8226 leukemia was over 100 µM in each case. The TGI in the assay on OVCAR-3 ovarian, in the assay with NCI-H522 lung and in the assay with HT29 colon was over 100 µM in each case.
